Earlier results on two substances are cited in publication PMC4877185 (Molecular imaging and biology : MIB : the official …, 2016).

Series [1] relates to GLP-1R. The following applies: greater affinity than truncated antagonist exendin-(9–39)-amide.
The subject of series [2] is GLP-1R. The following applies: read-out: cAMP EC50; unlabeled conjugates, GLP-1R agonist.

With Exendin-4, the “Binding affinity for GLP-1R relative to exendin-(9–39)-amide” value in series [1] is on record as approximately 10 fold.

DO3A-VS-Cys^40-exendin-4: in series [2], the EC50 (as a rule, the concentration that produces a half-maximal response) was 0.027 nM.
